{
  "source": "paper PMC5772529",
  "about": "(Scientific Reports, 2018)",
  "key": {"[1]": {"biological_target": "T1, human CaV2.2 (α1B, β3, α2δ1) (Homo sapiens, UniProt Q00975)", "T1 construct": "expressed in transfected cells", "T1 sequence (Q00975 whole entry, looked up)": "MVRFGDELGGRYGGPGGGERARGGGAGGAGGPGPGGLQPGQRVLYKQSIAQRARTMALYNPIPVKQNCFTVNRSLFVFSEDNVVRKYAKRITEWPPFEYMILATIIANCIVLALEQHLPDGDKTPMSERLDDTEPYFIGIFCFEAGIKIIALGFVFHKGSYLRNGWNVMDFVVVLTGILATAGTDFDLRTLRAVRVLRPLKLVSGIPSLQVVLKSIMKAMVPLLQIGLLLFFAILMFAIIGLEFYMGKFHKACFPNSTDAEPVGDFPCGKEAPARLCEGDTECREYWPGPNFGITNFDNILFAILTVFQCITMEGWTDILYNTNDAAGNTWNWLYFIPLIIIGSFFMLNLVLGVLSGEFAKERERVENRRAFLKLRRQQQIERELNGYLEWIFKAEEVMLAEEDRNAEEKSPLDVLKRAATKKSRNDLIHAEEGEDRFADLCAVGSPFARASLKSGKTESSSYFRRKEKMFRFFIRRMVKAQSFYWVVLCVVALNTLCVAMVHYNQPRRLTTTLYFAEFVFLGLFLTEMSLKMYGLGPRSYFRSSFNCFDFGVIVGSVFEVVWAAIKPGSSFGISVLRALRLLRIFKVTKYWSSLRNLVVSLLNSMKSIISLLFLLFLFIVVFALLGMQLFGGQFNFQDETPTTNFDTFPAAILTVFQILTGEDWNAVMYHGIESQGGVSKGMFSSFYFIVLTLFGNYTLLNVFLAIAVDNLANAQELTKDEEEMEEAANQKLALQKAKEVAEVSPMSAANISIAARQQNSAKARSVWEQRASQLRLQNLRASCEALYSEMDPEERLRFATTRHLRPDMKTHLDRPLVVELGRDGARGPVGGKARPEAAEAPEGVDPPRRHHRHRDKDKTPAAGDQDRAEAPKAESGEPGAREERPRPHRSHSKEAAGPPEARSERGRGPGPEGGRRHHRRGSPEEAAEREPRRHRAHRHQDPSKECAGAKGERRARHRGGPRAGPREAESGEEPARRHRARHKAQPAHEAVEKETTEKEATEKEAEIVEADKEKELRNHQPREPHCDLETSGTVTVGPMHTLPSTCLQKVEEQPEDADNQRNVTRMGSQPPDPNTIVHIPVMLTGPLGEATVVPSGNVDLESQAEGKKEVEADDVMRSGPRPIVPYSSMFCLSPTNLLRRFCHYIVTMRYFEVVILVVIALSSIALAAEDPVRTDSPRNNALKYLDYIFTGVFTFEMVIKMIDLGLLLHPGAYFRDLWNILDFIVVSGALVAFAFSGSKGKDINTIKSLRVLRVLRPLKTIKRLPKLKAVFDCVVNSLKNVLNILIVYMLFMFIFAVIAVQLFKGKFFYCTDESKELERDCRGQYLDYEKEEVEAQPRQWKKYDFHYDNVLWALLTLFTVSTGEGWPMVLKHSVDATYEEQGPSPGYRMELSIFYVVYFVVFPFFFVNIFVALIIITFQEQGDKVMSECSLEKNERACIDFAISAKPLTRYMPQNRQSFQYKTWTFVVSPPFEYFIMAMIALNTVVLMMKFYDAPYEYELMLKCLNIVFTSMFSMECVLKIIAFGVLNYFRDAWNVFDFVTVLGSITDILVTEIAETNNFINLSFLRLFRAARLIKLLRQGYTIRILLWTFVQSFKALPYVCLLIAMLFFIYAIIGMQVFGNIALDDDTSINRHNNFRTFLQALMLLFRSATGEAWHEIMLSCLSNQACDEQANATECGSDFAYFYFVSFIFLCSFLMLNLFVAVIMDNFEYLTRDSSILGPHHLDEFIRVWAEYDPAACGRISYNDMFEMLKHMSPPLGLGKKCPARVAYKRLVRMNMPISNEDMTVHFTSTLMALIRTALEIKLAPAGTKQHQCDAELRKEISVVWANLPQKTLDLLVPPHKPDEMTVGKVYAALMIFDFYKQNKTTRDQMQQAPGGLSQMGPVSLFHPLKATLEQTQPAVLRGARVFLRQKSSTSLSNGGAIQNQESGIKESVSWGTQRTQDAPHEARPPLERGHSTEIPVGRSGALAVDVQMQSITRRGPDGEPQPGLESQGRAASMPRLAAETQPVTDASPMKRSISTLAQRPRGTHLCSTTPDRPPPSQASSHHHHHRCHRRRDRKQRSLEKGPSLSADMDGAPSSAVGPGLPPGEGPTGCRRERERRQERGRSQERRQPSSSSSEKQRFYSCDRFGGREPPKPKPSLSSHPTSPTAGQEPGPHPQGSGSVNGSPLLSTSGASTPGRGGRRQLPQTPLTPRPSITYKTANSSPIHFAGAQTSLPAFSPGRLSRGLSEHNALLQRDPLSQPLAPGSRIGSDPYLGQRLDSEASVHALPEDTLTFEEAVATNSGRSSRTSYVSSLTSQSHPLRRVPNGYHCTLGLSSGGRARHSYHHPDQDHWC", "test": "cell-based", "design": "Emax: dose or concentration left out as unconfirmed"}, "[2]": {"test_system": "Beagle dogs", "settings": "dog, in vivo"}},
  "note": "Positions of bridges follow the written chain, without caps; N, C: chain ends. Residues, ends and D or L forms follow the SMILES beside them.",
  "data": [
    {"compound": "CSCC[C@@H]1NC(=O)[C@@H]2CSSC[C@H](NC(=O)CN)C(=O)N[C@@H](CSSC[C@@H](C(N)=O)NC(=O)[C@H](CC(C)C)NC(=O)[C@H](CC(N)=O)NC(=O)[C@@H]3CCCN3C(=O)[C@H](CC(N)=O)NC(=O)[C@H](CCCCN)NC(=O)[C@H](CC(C)C)NC1=O)C(=O)N[C@@H](CO)C(=O)N[C@@H](CC(N)=O)C(=O)N1CCC[C@H]1C(=O)N[C@@H](C)C(=O)N2", "note": "[Eu1.6] (H-GCCSNPACMLKNPNLC-NH2; disulfide 2-8, 3-16)", "values": [
      {"measurement": "IC50", "setting": "[1]", "value": 1.1, "unit": "nM"},
      {"measurement": "maximum block of CaV2.2", "setting": "[1]", "value": "< 50", "unit": "%"},
      {"measurement": "reduction of peak current density", "setting": "[1]", "value": "> 40", "unit": "%"},
      {"measurement": "inhibition at 1 µM", "setting": "[1]; HEK293, read-out: inhibition of depolarization-activated Ba2+ current amplitude", "value": "> 30", "unit": "%"},
      {"measurement": "Emax", "setting": "[1]; HEK293, read-out: maximal effect (partial inhibitor)", "value": 40, "unit": "%"},
      {"measurement": "physiological impairments of baseline parameters (locomotion, cardiac and respiratory function)", "setting": "[2]", "value": "no physiological impairments"}
    ]}
  ]
}
